# Assay results reported in patent US20060183902A1, “Dihydroindolyl methanones as alpha 1a/1d adrenoreceptor modulators for the treatment of benign prostatic hypertrophy and lower urinary tract symptoms” (priority 2005, published 2006).
# Values joined by “and” are separate entries in the source; they are usually repeats but may differ in a detail not shown here. Equal entries are not always repeated. Where two headings read alike, the source gives them in different places.
# Experiments:
# α1a-AR = target: T1, α1a-AR (Homo sapiens, UniProt P35348); assay: α1-Adrenergic receptor radio-ligand (125I-HEAT) binding assay, α1a subtype; details: COS-7 cell membranes transfected with α1a-AR, 125I-HEAT 50 pM
# T1 construct: expressed in transfected cells; host or cells: COS-7
# T1 sequence (P35348 1-466): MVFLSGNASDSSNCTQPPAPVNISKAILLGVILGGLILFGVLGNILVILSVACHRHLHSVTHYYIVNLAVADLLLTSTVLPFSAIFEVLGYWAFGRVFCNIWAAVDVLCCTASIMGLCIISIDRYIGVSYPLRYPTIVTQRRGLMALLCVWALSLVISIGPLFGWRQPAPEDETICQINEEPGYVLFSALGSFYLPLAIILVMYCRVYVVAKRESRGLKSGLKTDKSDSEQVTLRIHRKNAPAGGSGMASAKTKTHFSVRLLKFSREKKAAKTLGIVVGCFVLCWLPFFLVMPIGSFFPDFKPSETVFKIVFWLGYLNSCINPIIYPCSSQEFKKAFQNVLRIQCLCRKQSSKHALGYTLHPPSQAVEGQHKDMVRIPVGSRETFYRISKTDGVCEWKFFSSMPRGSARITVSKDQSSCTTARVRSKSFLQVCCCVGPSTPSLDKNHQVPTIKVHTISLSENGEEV
# Method in brief: (§1)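 Membranes from COS-7 cells transfected with a single α1-AR subtype, incubated 1 h at rt with 50 pM 125I-HEAT and compound (1 pM–10 µM, half-log steps, final) in Tris/EDTA/NaCl pH 7.4. Bound radioactivity collected by GF/C filtration and scintillation counting, triplicates; Ki derived.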
# α1b-AR = target: T2, α1b-AR (Homo sapiens, UniProt P35368); assay: α1-Adrenergic receptor radio-ligand (125I-HEAT) binding assay, α1b subtype; details: COS-7 cell membranes transfected with α1b-AR, 125I-HEAT 50 pM
# T2 construct: expressed in transfected cells; host or cells: COS-7
# T2 sequence (P35368 1-520): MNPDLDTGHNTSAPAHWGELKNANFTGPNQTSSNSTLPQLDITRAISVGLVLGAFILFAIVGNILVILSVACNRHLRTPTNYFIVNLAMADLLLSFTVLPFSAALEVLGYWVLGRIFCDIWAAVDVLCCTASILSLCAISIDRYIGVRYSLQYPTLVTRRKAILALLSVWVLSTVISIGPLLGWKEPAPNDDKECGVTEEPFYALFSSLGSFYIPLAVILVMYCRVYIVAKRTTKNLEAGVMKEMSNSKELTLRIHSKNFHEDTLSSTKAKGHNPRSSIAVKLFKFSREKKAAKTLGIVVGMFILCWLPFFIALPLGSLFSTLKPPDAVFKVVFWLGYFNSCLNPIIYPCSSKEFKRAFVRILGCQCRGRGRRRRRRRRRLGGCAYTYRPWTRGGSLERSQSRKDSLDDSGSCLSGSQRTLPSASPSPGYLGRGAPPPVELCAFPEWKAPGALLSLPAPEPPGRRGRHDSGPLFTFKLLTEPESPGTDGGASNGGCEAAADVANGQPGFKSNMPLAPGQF
# Method in brief: as §1
# α1d-AR = target: T3, α1d-AR (Homo sapiens, UniProt P25100); assay: α1-Adrenergic receptor radio-ligand (125I-HEAT) binding assay, α1d subtype; details: COS-7 cell membranes transfected with α1d-AR, 125I-HEAT 50 pM
# T3 construct: expressed in transfected cells; host or cells: COS-7
# T3 sequence (P25100 1-572): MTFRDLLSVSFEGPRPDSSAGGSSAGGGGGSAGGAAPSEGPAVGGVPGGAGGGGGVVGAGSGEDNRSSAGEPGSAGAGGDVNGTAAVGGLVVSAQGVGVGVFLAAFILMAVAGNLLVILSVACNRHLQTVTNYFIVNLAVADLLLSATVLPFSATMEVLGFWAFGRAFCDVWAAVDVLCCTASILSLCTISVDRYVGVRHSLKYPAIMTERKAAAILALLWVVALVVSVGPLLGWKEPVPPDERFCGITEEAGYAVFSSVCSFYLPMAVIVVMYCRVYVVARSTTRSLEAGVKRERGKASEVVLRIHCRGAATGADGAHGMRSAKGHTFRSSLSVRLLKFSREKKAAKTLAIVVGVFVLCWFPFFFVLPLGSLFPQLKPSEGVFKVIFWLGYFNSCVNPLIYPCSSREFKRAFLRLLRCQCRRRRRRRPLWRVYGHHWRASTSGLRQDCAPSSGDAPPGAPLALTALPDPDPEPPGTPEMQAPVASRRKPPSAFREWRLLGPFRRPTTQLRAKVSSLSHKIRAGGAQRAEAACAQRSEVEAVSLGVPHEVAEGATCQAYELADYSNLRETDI
# Method in brief: as §1
# [1] = read-out: Receptor Binding, Ki α1a-AR
# [2] = read-out: Receptor Binding, Ki α1b-AR
# [3] = read-out: Receptor Binding, Ki α1d-AR
melting point [°C],Ki (α1a-AR; [1]),Ki (α1b-AR; [2]),Ki (α1d-AR; [3]),SMILES,"Ki (α1a-AR; Receptor Binding, Ki α1a-AR) [µM]","Ki (α1b-AR; Receptor Binding, Ki α1b-AR) [µM]","Ki (α1d-AR; Receptor Binding, Ki α1d-AR) [µM]"
74 to 76,0.014 µM,0.389 µM,0.015 µM,"CC(C)Oc1ccccc1N1CCN(Cc2cccc(C(=O)N3CCc4cc(NCc5ccc(C(F)(F)F)cc5)ccc43)c2)CC1 [Cpd 8, {3-[4-(2-isopropoxy-phenyl)-piperazin-1-ylmethyl]-phenyl}-[5-(4-trifluoromethyl-benzylamino)-2,3-dihydro-indol-1-yl]-methanone]",–,–,–
132 to 134,0.026 µM,0.383 µM,0.0023 µM,"CC(=O)Nc1ccc(S(=O)(=O)Nc2ccc3c(c2)CCN3C(=O)c2cccc(CN3CCN(c4ccccc4OC(C)C)CC3)c2)cc1 [Cpd 19, N-[4-(1-{3-[4-(2-isopropoxy-phenyl)-piperazin-1-ylmethyl]-benzoyl}-2,3-dihydro-1H-indol-5-ylsulfamoyl)-phenyl]-acetamide]",–,–,–
127 to 130,0.026 µM,2.05 µM,0.017 µM,"CC(C)Oc1ccccc1N1CCN(Cc2cccc(C(=O)N3CCc4cc(NCc5c(F)cccc5F)ccc43)c2)CC1 [Cpd 9, [5-(2,6-difluoro-benzylamino)-2,3-dihydro-indol-1-yl]-{3-[4-(2-isopropoxy-phenyl)-piperazin-1-ylmethyl]-phenyl}-methanone]",–,–,–
156 to 160,0.005 µM,6.26 µM,0.007 µM,CCOC(OCC)c1ccc(CNc2ccc3c(c2)N(C(=O)c2cccc(CN4CCN(c5ccccc5OC(C)C)CC4)c2)CC3)cc1 [Cpd 11],–,–,–
137 to 139,0.002 µM,0.856 µM,0.0024 µM,"CC(C)Oc1ccccc1N1CCN(Cc2cccc(C(=O)N3CCc4ccc(NCc5c(F)cccc5F)cc43)c2)CC1 [Cpd 6, [6-(2,6-difluoro-benzylamino)-2,3-dihydro-indol-1-yl]-{3-[4-(2-isopropoxy-phenyl)-piperazin-1-ylmethyl]-phenyl}-methanone]",–,–,–
116 to 118,0.195 µM,–,0.317 µM,"CCCCCCCCc1ccc(CNc2ccc3c(c2)CCN3C(=O)c2cccc(CN3CCN(c4ccccc4OC(C)C)CC3)c2)cc1 [Cpd 23, {3-[4-(2-isopropoxy-phenyl)-piperazin-1-ylmethyl]-phenyl}-[5-(4-octyl-benzylamino)-2,3-dihydro-indol-1-yl]-methanone]",–,–,–
–,0.0023 µM,0.23 µM,0.0026 µM,"CCS(=O)(=O)Nc1ccc2c(c1)N(C(=O)c1cccc(CN3CCN(c4ccccc4OC(C)C)CC3)c1)CC2 [Cpd 47, ethanesulfonic acid (1-{3-[4-(2-isopropoxy-phenyl)-piperazin-1-ylmethyl]-benzoyl}-2,3-dihydro-1H-indol-6-yl)-amide]",–,–,–
–,0.001 µM,0.091 µM,0.7 µM,"CC(=O)Nc1ccc(S(=O)(=O)Nc2ccc3c(c2)N(C(=O)c2cccc(CN4CCN(c5ccccc5OC(C)C)CC4)c2)CC3)cc1 [Cpd 15, N-[4-(1-{3-[4-(2-isopropoxy-phenyl)-piperazin-1-ylmethyl]-benzoyl}-2,3-dihydro-1H-indol-6-ylsulfamoyl)-phenyl]-acetamide]",–,–,–
–,0.0053 µM,0.201 µM,0.0085 µM,"COc1ccccc1C1CCN(Cc2ccc(C(=O)N3CCc4ccc([N+](=O)[O-])cc43)cc2)CC1 [Cpd 35, {4-[4-(2-methoxy-phenyl)-piperidin-1-ylmethyl]-phenyl}-(6-nitro-2,3-dihydro-indol-1-yl)-methanone]",–,–,–
–,0.171 µM,0.331 µM,0.0116 µM and 0.088 µM,"N#Cc1ccccc1N1CCN(Cc2cccc(C(=O)N3CCc4ccccc43)c2)CC1 [Cpd 31, (2,3-dihydro-indol-1-yl)-{3-[4-(2-cyano-phenyl)-piperazin-1-ylmethyl]-phenyl}-methanone]",–,–,–
–,0.0008 µM and 0.0005 µM,0.234 µM and 0.255 µM,0.0019 µM and 0.001 µM,"CC(C)Oc1ccccc1C1CCN(Cc2cccc(C(=O)N3CCc4ccc(NS(=O)(=O)c5c(F)cccc5F)cc43)c2)CC1 [Cpd 58, 2,6-difluoro-N-(1-{3-[4-(2-isopropoxy-phenyl)-piperidin 1-ylmethyl]-benzoyl}-2,3-dihydro-1H-indol-6-yl)-benzenesulfonamide]",–,–,–
–,0.0392 µM,1.01 µM,0.0402 µM,"CCOC(OCC)c1ccc(CNc2ccc3c(c2)CCN3C(=O)c2ccc(CN3CCC(c4ccccc4OC)CC3)cc2)cc1 [Cpd 36, [5-(4-diethoxymethyl-benzylamino)-2,3-dihydro-indol-1-yl]-{4-[4-(2-methoxy-phenyl)-piperidin-1-ylmethyl]-phenyl}-methanone]",–,–,–
–,0.0078 µM,0.458 µM,0.032 µM,"COc1ccccc1C1CCN(Cc2ccc(C(=O)N3CCc4ccccc43)cc2)CC1 [Cpd 50, (2,3-dihydro-indol-1-yl)-{4-[4-(2-methoxy-phenyl)-piperidin-1-ylmethyl]-phenyl}-methanone]",–,–,–
–,0.048 µM,1.47 µM,0.015 µM,"CCOC(OCC)c1ccc(CNc2ccc3c(c2)CCN3C(=O)c2cccc(CN3CCN(c4ccccc4OC(C)C)CC3)c2)cc1 [Cpd 24, [5-(4-diethoxymethyl-benzylamino)-2,3-dihydro-indol-1-yl]-{3-[4-(2-isopropoxy-phenyl)-piperazin-1-ylmethyl]-phenyl}-methanone]",–,–,–
–,0.0155 µM,0.152 µM,0.0021 µM,"COc1ccccc1C1CCN(Cc2cccc(C(=O)N3CCc4ccc(NS(=O)(=O)c5c(F)cccc5F)cc43)c2)CC1 [Cpd 61, 2,6-difluoro-N-(1-{3-[4-(2-methoxy-phenyl)-piperidin-1-ylmethyl]-benzoyl}-2,3-dihydro-1H-indol-6-yl)-benzenesulfonamide]",–,–,–
–,0.0047 µM and 0.0081 µM,0.494 µM and 0.394 µM,0.0019 µM and 0.0026 µM,"CC(C)Oc1ccccc1N1CCN(Cc2cccc(C(=O)N3CCc4ccc(NS(N)(=O)=O)cc43)c2)CC1 [Cpd 20, N-(1-{3-[4-(2-isopropoxy-phenyl)-piperazin-1-ylmethyl]-benzoyl}-2,3-dihydro-1H-indol-6-yl)-sulfamide]",–,–,–
–,0.0488 µM,0.658 µM,0.0491 µM,"COc1ccccc1C1CCN(Cc2ccc(C(=O)N3CCc4cc(N)ccc43)cc2)CC1 [Cpd 33, (5-amino-2,3-dihydro-indol-1-yl)-{4-[4-(2-methoxy-phenyl)-piperidin-1-ylmethyl]-phenyl}-methanone]",–,–,–

SMILES,melting point [°C],Ki (α1a-AR; [1]),Ki (α1b-AR; [2]),Ki (α1d-AR; [3]),"Ki (α1a-AR; Receptor Binding, Ki α1a-AR) [µM]","Ki (α1b-AR; Receptor Binding, Ki α1b-AR) [µM]","Ki (α1d-AR; Receptor Binding, Ki α1d-AR) [µM]"
"Cc1ccc(OC(=O)Nc2ccc3c(c2)CCN3C(=O)c2cccc(CN3CCN(c4ccccc4OC(C)C)CC3)c2)cc1 [Cpd 4, (1-{3-[4-(2-isopropoxy-phenyl)-piperazin-1-ylmethyl]-benzoyl}2,3-dihydro-1H-indol-5-yl)-carbamic acid p-tolyl ester]",166 to 168,–,–,–,0.0024,0.096,0.02
